Measured values reported in patent US20040048849A1, “Cyclin-dependent kinase (cdk) and glycolene synthase kinase-3 (gsk-3) inhibitors” (priority 2000, published 2004).

Test system: DU145 (human prostate cancer cells)
Test: Antiproliferative activity, WST1 colorimetric test, DU145
Format: cell-based
Settings: 96 hours treatment, 0 to 25 μM
Procedure: Characterization of the Antiproliferative Activity:
By way of example, the effect of a treatment on two human cell lines Mia-Paca2 and DU145 by the compounds of Examples 1 to 33 described previously will be studied. The cell lines DU145 (human prostate cancer cells) and Mia-PaCa2 (human pancreas cancer cells) were acquired from the American Tissue Culture Collection (Rockville, Md., USA). The cells placed in 95 μl of Dulbecco's Modified Eagle's medium (Gibco-Brl, Cergy-Pontoise, France) completed with 10% foetal calf serum inactivated by heating (Gibco-Brl, Cergy-Pontoise, France), 100 units/l of penicillin and 100 μg/ml/l of streptomycin (Gibco-Brl, 10378-057, Cergy-Pontoise, France), and 2 mM of glutamine (Gibco-Brl, Cergy-Pontoise, France) were seeded on a 96-well plate on day 0. The cells were treated on day 1 for 96 hours with 5 μl of each of the compounds at concentrations increasing from 0 to 25 μM final concentration. At the end of this period, quantification of cell proliferation is evaluated by a colorimetric test based on the cleavage of the tetrazolium salt WST1 by the mitochondrial dehydrogenases in viable cells leading to the formation of formazan (Boehringer Mannheim, Meylan, France). These tests are carried out in duplicate with 8 determinations per concentration tested. […]

For `CC[C@H](CO)Nc1nc(NCc2ccccc2)c2ncn(C(C)C)c2n1` [Roscovitine], the “antiproliferative activity regarding DU-145 cells” value was “no antiproliferative activity”.
